This is an account of results in BindingDB's records for doi:10.1016/j.bmc.2014.04.026 (Florida A&M University, 2014).

pKi: −log10 of the molar value.

This assay deals with D(3) dopamine receptor (Homo sapiens, UniProt P35462). The assay is described as follows: Displacement of [3H]N-methylspiperone from human dopamine D3 receptor by PDSP assay. A general note: Loss of bound radioactivity is the signal in a displacement assay; it reports binding, not function.
Sequence of D(3) dopamine receptor (P35462 as listed by the source): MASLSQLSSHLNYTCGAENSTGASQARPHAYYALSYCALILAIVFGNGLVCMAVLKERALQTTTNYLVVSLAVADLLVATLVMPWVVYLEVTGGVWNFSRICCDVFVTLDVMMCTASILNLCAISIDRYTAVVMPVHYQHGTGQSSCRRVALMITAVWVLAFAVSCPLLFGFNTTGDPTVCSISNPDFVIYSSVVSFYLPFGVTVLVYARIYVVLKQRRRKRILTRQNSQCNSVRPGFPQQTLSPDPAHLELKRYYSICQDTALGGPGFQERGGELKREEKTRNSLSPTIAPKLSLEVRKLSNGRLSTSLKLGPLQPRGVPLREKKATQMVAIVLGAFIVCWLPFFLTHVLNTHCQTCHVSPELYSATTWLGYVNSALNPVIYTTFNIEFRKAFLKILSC

Take `Clc1ccc(N2C[C@H]3C[C@@H]2CN3CCCc2cc3ccccc3o2)cc1`: the pKi (commonly the negative decadic logarithm of the Ki, by convention in mol/L) is 6.17.
